The nature of series [1]: In vivo pharmacokinetic experiment, oral administration. On the set-up: species or system Sprague Dawley rats. The following applies: for half-life / AUC(0-inf) / Cmax / Tmax: male, Sprague-Dawley, rat, plasma; for half-life: po, 3 mg/kg; for elimination speed after the highest concentration, compared with compounds 1 and 5: oral administration, FIGS. 1A and 1B. As for the experimental part:
(§1) In this Example, the pharmacokinetic properties of compounds 1, 2, 3, 4 and 5 were evaluated via. i.v. and p.o. dosing to Sprague Dawley rats.
(§2) Experimental animals used in this Example and hereinafter were male SD rats of 7-9 weeks old, with body weight ranging from 186 to 231 g, which were purchased from Beijing Vital River Laboratory Animal Technology Co., Ltd. The animals were quarantined by veterinarian for 5 days after purchase, then animals had passed quarantine inspection were selected to be tested under SPE conditions, wherein the tested animals are assigned into 3 rats per group as follows.
Oral administration group: 2.74 mg of each of compounds 1-5 was respectively prepared into a solution of 0.3 mg/mL by using 9.113 mL 0.5% CMC-Na as a diluent. Each solution was vortexed 1-2 mins after mixed fully, and then was ultrasonically treated for 20-30 mins until a uniform suspension was obtained. The uniform suspension was used as medicine administrated to oral administration group, and the administration was conducted with a dose of 10 mL/kg body weight of each rat.
(§3) For both oral administration group and intravenous administration group, blood samples were collected at 0.0833 h (5 min), 0.25 h (15 min), 0.5 h, 1 h, 2 h, 4 h, 8 h, and 24 h after administration. After isoflurane anesthesia 0.3 mL whole blood was collected from orbital venous plexus of the animals at each time point. The animals would be euthanized after all samples were collected.
(§4) The collected blood samples were placed in EP tubes containing heparin sodium (about 10 μl, 1000 IU/mL), which were then placed in trash ice immediately, and centrifuged at 4,000 rpm and a low temperature (4° C.) for 5 minutes. The plasma was isolated rapidly and then stored at −20° C. until analysis.
(§5) The concentration of each compound in blood was measured by LC-MS/MS-001 (Q-trap-3200) with osalmide as internal standard material, as follows. 24 μL blank plasma was added into 6 μL plasma sample (5 times of dilution), and then a solution of acetonitrile containing 150 μL internal standard material (osalmide in 100 μg/mL) was added in. The mixture was shaken for 5 minutes, and then centrifuged at 4,000 rpm for 5 minutes. 2 μL of the obtained sample was implanted into LC-MS/MS for analysis. As for undiluted plasma sample, 30 μL of it was added into a solution of acetonitrile containing 150 μL internal standard material (osalmide in 100 μg/mL). The mixture was shaken for 5 minutes, and then centrifuged at 4,000 rpm for 5 minutes. 2 μL of the obtained sample was implanted into LC-MS/MS for analysis.
(§6) As for data analysis, WinNolin (V6.2) non-compartment model (NCA) was used for calculating main metabolic pharmacokinetic parameters including t1/2, AUC(0−t), AUCinf, V, Cl, MRT, etc., and Microsoft Office EXCEL was used for calculating mean values, standard deviations and coefficients of variation.

For another series, the target named is human S1P3 (Homo sapiens, UniProt Q99500). The series is described as follows: Internalization effect experiment of S1P3 (CHO-S cells). The format is cell-based. The following applies: for EC50: CHO-S cells expressing human S1P3, read-out: Receptor Internalization (EC50) S1P3; for internalization activation effect on S1P3 subtype: CHO-S cells expressing human S1P3, in words. As for the experimental part: CHO—S cells bearing human S1P1 with Myc tag were harvested and then adjusted to a density of one million cells per mL by Dulbecco's modified Eagle's medium (DMEM). […] After incubation, the mixture was centrifuged at 800 RPM for 5 minutes to obtain the cells. The cells were resuspended in FACS buffer (PBS containing 1% BSA), and Myc antibody labelled with fluorescein isothiocyanate (FITC) (from Californian Miltenyi Biotec GmbH, USA) was added in and incubated for 1 hour on ice. The cells were washed, resuspended in pre-cooled FACS buffer and analysed by FACS Calibur flow cytometry.
human S1P3, sequence (Q99500 whole entry): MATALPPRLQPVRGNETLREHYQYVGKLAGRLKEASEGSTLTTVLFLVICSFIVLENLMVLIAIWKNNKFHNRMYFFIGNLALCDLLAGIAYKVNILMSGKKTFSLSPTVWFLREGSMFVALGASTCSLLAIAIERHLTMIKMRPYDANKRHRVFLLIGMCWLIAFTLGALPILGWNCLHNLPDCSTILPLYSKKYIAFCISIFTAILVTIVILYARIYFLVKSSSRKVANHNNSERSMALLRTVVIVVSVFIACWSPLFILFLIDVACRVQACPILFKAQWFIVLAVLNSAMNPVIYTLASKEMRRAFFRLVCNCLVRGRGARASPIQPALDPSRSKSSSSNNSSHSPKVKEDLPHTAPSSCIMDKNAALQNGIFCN
CHO—S cells expressing human S1P3 were used to perform internalization detection test. Besides cells, experimental method was the same with the method of the internalized detection experiment of S1P1.

For another series, the target named is T1, human S1P1 (Homo sapiens, UniProt P21453).
T1 construct: expressed in transfected cells; host or cells: CHO-S cells
T1 sequence (P21453 whole entry): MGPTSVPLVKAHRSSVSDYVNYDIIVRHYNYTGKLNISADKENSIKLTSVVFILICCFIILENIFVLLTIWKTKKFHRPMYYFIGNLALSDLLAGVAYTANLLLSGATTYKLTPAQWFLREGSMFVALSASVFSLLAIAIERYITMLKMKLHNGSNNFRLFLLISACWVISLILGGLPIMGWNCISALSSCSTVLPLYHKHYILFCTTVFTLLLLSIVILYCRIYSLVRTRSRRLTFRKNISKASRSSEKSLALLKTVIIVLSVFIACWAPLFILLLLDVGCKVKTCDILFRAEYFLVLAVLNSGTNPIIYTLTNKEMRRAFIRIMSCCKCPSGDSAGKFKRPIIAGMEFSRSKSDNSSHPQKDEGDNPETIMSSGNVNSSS
The series is described as follows: Internalization effect experiment on S1P1 (CHO-S cells, Myc tag, flow cytometry). The class given is cell-based. As to conditions: for EC50: CHO-S cells expressing human S1P1, 1 hour at 37° C., read-out: Receptor Internalization (EC50) S1P1; for activity of inducing S1P1 internalization: CHO-S cells expressing human S1P1, in words. From the text:
It is well known that S1P1 small molecule agonists can prevent lymphocytes from entering the peripheral circulation by inducing internalization of S1P1 on cell surface. In order to determine whether the compounds provided by present invention have an activity of inducing S1P1 internalization, CHO—S cells expressing human S1P1, to replace the lymphocytes, are used as detection system of S1P1 internalization. For ease of monitoring the S1P1 on cell surface, a Myc tag is fused to N-terminal of S1P1, thus the expression of S1P1 is analyzed by flow cytometry after incubating the cells with fluorescent-labeled antibody against the Myc tag.
A 10 mM stock solution was prepared by dissolving compound 2 provided by the present invention in dimethyl sulfoxide (DMSO), and then the stock solution was diluted to different concentrations as desired with DMEM. CHO—S cells bearing human S1P1 with Myc tag were harvested and then adjusted to a density of one million cells per mL by Dulbecco's modified Eagle's medium (DMEM). Different concentrations of Compound 2 diluted in an equal volume were mixed and the cell suspension and then incubated at 37° C. for 1 hour. After incubation, the mixture was centrifuged at 800 RPM for 5 minutes to obtain the cells. The cells were resuspended in FACS buffer (PBS containing 1% BSA), and Myc antibody labelled with fluorescein isothiocyanate (FITC) (from Californian Miltenyi Biotec GmbH, USA) was added in and incubated for 1 hour on ice. The cells were washed, resuspended in pre-cooled FACS buffer and analysed by FACS Calibur flow cytometry.
In general terms: In flow cytometry, cells or beads pass a laser one at a time.

Series [2] in a line: In vivo pharmacokinetic experiment, intravenous administration. As to conditions: for AUC(0-inf) / MRT inf / clearance / half-life / Vd: male, Sprague-Dawley, rat, plasma, intravenous administration (1 mg/kg), SD rats; for half-life: read-out: T½ (converted); for Vd: read-out: Vss; for mean residence time (MRT) compared with compound 1 / terminal half-life compared with compound 1: intravenous administration, rats, in words. On the set-up: species or system Sprague Dawley rats. As for the experimental part:
as §1, §2
Intravenous administration group: 1.61 mg of each of compounds 1-5 was respectively prepared into a solution of 1 mg/mL by using 1.610 mL 10% HP-β-CD as a diluent. Each solution was vortexed 1-2 mins after mixed fully, and then was ultrasonically treated for 28-30 mins. The obtained solution was used as medicine administrated to intravenous administration group, and the administration was conducted with a dose of 1 mL/kg body weight of each rat.
as §3, §4, §5, §6

Setting [3] is: after oral administration, rats, read-out: terminal half-life (converted).
Where [4] appears, read: oral administration (3 mg/kg), SD rats, read-out: T½ (converted).
Setting [5] is: oral administration (3 mg/kg), SD rats.
The mark [6] stands for this setting: after oral administration, rats.

Broadly, the AUC(0-inf) is total exposure, with the tail of the curve extrapolated. Read a high AUC(0-inf) as more exposure. The term Cmax denotes the highest concentration seen after dosing. By Tmax is commonly meant the time at which the peak concentration occurs. By EC50 is commonly meant the concentration giving half of the maximal effect. As usually defined, the MRT inf is a mean duration of stay, worked out from the concentration-time curve. As a reminder, the clearance is a measure of how efficiently the substance is removed, as volume per time. The low end stands for a low capacity for elimination, the high end for a high capacity for elimination. Turning to `CC(C)Cc1ccc(-c2nc(-c3ccc(CN4CC(C(=O)O)C4)cc3)no2)cc1` [Compound 1, 1-{4-[5-(4-isobutylphenyl)-1,2,4-oxadiazol-3-yl]-benzyl}-3-azetidine carboxylic acid, reference compound], in series [1] (setting [3]), the half-life was roughly 11 h. Besides, the half-life in series [1] (setting [4]) is 10.6 ± 1.07 h. In addition, in series [1] (setting [5]), the AUC(0-inf) stood at 6200 ± 147 ng·h/mL, the Cmax came to 365 ± 51.5 ng/mL, the Tmax was found to be 2 h and the F amounted to 82.5%. Further, the EC50 at human S1P3 was greater than 1000 nM. In addition, the EC50 on human S1P1 worked out at 5.69 nM. Further, in series [2], the AUC(0-inf) turned out to be 2380 ± 329 ng·h/mL, the MRT inf is 11 ± 1.2 h, the clearance is 7.12 mL/min/kg and the half-life is 8.69 ± 0.8 h. Besides, the Vd in series [2] was found to be 4.65 ± 0.389 L/kg.
`CC(C)Cc1ccc(-c2nc(-c3ccc(CN4CC(C(=O)O)C4)c(Cl)c3)no2)cc1` [Compound 3, 1-{2-chloro-4-[5-(4-isobutylphenyl)-1,2,4-oxadiazol-3-yl]-benzyl}-3-azetidine carboxylic acid]: the “half-life shortening relative to compound 1” value in series [1] (setting [6]) is listed as roughly 50%. The half-life in series [1] (setting [3]) is less than 5.5 h. The half-life in series [1] (setting [4]) was 5.3 ± 0.51 h. For the same molecule, in series [1] (setting [5]), the AUC(0-inf) stood at 8110 ± 469 ng·h/mL, the peak level (Cmax) was 681 ± 61.1 ng/mL, the Tmax turned out to be 3.33 h and the F is 96.1%. Besides, the “elimination speed after the highest concentration, compared with compounds 1 and 5” value in series [1] (rats, in words) was “accelerated obviously”. Moreover, on human S1P3, the “internalization activation effect on S1P3 subtype” value was “no internalization activation effect on S1P3 subtype” and the EC50 was greater than 1000 nM. At human S1P1, the EC50 came to 3.21 nM and the “activity of inducing S1P1 internalization” value was “no significant difference with that of compound 1”. For the same molecule, in series [2], the “mean residence time (MRT) compared with compound 1” value is listed as “reduced significantly”, the “terminal half-life compared with compound 1” value is reported as “reduced significantly”, the AUC(0-inf) was 2770 ± 410 ng·h/mL and the MRT inf was found to be 5.11 ± 0.39 h. In series [2], the clearance is 6.1 mL/min/kg, the half-life was 5.04 ± 0.37 h and the Vd worked out at 2.65 ± 0.229 L/kg.
With `CC(C)Cc1ccc(-c2nc(-c3ccc(CN4CC(C(=O)O)C4)c(Br)c3)no2)cc1` [Compound 4, 1-{2-bromo-4-[5-(4-isobutylphenyl)-1,2,4-oxadiazol-3-yl]-benzyl}-3-azetidine carboxylic acid], the “half-life shortening relative to compound 1” value in series [1] (setting [6]) is roughly 50%. In addition, in series [1] (setting [3]), the half-life was less than 5.5 h. Also, in series [1] (setting [4]), the half-life was 5.37 ± 0.15 h. Moreover, in series [1] (setting [5]), the AUC(0-inf) was found to be 4420 ± 449 ng·h/mL, the highest level (Cmax) was 346 ± 29.6 ng/mL, the Tmax came out at 1.15 h and the F is given as 52.9%. In addition, the “elimination speed after the highest concentration, compared with compounds 1 and 5” value in series [1] (rats, in words) is on record as “accelerated obviously”. Moreover, on human S1P3, the “internalization activation effect on S1P3 subtype” value is “no internalization activation effect on S1P3 subtype” and the EC50 is greater than 1000 nM. Besides, at human S1P1, the EC50 came out at 4.2 nM and the “activity of inducing S1P1 internalization” value was “no significant difference with that of compound 1”. Besides, in series [2], the “mean residence time (MRT) compared with compound 1” value is “reduced significantly”, the “terminal half-life compared with compound 1” value is given as “reduced significantly”, the AUC(0-inf) is 2770 ± 200 ng·h/mL and the MRT inf was 5.23 ± 0.36 h. For the same molecule, in series [2], the clearance was 6.03 mL/min/kg, the half-life was 5.29 ± 0.6 h and the Vd stood at 2.75 ± 0.112 L/kg.
Consider `Cc1cc(-c2noc(-c3ccc(CC(C)C)cc3)n2)ccc1CN1CC(C(=O)O)C1` [Compound 5, 1-{2-methyl-4-[5-(4-isobutylphenyl)-1,2,4-oxadiazol-3-yl]-benzyl}-3-azetidine carboxylic acid], for which the half-life in series [1] (setting [4]) was 12.3 ± 2.09 h. Further, in series [1] (setting [5]), the AUC(0-inf) amounted to 5460 ± 401 ng·h/mL, the concentration peaked (Cmax) at 249 ± 8.74 ng/mL, the Tmax is 3.33 h and the F amounted to 74.0%. The “half-life compared with compound 1” value in series [1] (oral and intravenous (Tables 1 and 2), rats, in words) is recorded as “extended rather than shortened”. For the same molecule, in series [2], the AUC(0-inf) was found to be 2200 ± 89.5 ng·h/mL, the MRT inf came to 12.9 ± 1.24 h, the clearance is 7.57 mL/min/kg and the half-life is 10.1 ± 1.02 h. For the same molecule, in series [2], the Vd turned out to be 5.87 ± 0.802 L/kg.

The record behind these values is US10280158B2, “Immune adjustment compound, use thereof and pharmaceutical composition comprising same” (SUZHOU CONNECT BIOPHARMACEUTICALS, LTD., priority 2013, dated 2019).
